Test results published in publication PMC8858684 (FEBS letters, 2021).

Biological target: CTX-M-14 β-lactamase (Escherichia coli, UniProt Q9L5C7)
Experiment: hydrolysis kinetics
Type: biochemical
Conditions: read-out: Cefotaxime / Km; purified enzyme

CO/N=C(\C(=O)N[C@@H]1C(=O)N2C(C(=O)O)=C(COC(C)=O)CS[C@H]12)c1csc(N)n1 [cefotaxime]
Km: 83.8 ± 2.3 µM
